According to PMC7224301, “Methodology for the identification of small molecule inhibitors of the Fanconi Anaemia ubiquitin E3 ligase complex” (Scientific Reports, 2020):

Columns and labels:
[1] = system: FANCD2 foci in SUM149 parental cells; assay: Nuclear FANCD2 foci formation (immunofluorescence), SUM149 parental; assay type: cell-based, human; conditions: for FANCD2 foci: 2 days exposure, DMSO = 3.80; for effect on FANCD2 foci formation: SUM149 parental cells (BRCA1-deficient), 1 µM
Experimental: FANCD2 foci formation is often used as an indicator of FA core complex functionality[40],[43]. Therefore, we selected 11 compounds to test at 1 µM in 384-well format for their ability to reduce FANCD2 foci formation in SUM149 parental BRCA1-deficient cells. […] An inhibitor of the FA pathway could exploit this dependency of FANCD2 activity to synergise with PARP inhibitors.
Nuclear FANCD2 foci were measured in high throughput by quantitating DAPI stained cell nuclei of either SUM149 or SUM149 B1.S* cell lines using automated confocal imaging (CX7 LZR, ThermoFisher Scientific). […] FANCD2 foci were detected with immunofluorescence using rabbit anti-human FANCD2 (abcam, ab108928).

[2] = system: T1, FA core complex-mediated FANCD2 mono-ubiquitination; assay: FANCD2 mono-ubiquitination proximity assay (AlphaScreen), inhibitor format; assay type: biochemical, human proteins; Xenopus laevis FANCD2 and FANCI; conditions: at 0.3 µM
T1 construct: made in house; host or cells: High-Five insect cells (FANC-B-L-100, FANCD2-FANCI); E. coli BL21 (DE3) (UBE2T); UBE1 and ubiquitin from Boston Biochem
T1 sequence (Q9NW38 whole entry): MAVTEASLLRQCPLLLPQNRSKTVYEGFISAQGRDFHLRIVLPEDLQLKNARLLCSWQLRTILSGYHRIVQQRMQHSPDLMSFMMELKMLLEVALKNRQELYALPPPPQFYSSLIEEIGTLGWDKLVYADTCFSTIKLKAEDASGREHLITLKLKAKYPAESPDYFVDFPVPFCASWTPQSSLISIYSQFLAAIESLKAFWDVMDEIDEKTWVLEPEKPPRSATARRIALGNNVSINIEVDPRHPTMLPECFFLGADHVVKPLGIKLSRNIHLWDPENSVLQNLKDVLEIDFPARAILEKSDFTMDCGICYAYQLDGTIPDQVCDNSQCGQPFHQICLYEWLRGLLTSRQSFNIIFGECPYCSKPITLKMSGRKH
T1 sequence (Q8NB91 whole entry, further chain): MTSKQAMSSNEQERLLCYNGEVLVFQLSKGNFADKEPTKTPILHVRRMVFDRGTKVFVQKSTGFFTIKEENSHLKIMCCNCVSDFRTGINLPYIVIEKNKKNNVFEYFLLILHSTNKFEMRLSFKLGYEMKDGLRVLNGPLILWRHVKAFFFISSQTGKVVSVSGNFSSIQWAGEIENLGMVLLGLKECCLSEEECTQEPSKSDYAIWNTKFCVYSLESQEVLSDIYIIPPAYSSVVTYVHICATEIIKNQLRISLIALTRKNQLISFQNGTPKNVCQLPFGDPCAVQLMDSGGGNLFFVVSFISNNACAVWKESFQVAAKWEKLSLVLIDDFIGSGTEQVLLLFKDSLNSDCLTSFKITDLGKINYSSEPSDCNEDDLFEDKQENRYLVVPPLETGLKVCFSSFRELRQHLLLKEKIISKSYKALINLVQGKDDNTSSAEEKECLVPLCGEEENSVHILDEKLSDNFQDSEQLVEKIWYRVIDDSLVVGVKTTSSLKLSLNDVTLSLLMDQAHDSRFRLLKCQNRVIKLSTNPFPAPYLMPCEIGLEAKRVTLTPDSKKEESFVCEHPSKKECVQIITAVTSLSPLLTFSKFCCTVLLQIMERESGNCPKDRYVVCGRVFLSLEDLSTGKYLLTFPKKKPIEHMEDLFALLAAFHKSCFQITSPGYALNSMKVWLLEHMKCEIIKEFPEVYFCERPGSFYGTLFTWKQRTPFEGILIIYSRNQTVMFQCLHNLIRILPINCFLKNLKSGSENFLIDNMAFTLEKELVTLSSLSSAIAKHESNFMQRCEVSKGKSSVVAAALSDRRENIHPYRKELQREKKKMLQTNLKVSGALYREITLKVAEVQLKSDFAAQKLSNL
T1 sequence (Q0VG06 whole entry, further chain): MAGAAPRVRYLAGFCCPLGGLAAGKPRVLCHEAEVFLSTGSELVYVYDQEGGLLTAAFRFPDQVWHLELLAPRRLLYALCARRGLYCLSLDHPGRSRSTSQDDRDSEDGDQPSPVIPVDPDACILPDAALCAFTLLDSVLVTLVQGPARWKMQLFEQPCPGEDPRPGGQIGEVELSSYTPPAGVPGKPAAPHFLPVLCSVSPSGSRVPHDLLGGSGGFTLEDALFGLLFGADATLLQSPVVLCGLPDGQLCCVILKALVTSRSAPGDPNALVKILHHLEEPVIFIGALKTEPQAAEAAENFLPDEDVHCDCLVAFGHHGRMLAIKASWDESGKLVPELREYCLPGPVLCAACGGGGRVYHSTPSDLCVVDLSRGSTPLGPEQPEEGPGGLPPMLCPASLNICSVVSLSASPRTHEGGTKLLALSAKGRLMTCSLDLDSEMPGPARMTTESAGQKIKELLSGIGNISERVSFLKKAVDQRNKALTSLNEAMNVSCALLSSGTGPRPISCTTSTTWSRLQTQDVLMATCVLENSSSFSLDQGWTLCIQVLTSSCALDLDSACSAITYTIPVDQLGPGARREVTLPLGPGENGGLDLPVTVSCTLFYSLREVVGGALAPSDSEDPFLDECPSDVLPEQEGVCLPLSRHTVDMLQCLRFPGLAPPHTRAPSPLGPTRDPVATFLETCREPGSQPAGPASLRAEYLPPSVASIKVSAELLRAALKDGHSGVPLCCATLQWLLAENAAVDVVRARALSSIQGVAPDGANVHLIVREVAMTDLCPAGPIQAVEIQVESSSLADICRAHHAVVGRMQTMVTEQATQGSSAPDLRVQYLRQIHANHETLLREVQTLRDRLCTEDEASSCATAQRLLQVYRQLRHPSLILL
T1 sequence (Q00597 whole entry, further chain): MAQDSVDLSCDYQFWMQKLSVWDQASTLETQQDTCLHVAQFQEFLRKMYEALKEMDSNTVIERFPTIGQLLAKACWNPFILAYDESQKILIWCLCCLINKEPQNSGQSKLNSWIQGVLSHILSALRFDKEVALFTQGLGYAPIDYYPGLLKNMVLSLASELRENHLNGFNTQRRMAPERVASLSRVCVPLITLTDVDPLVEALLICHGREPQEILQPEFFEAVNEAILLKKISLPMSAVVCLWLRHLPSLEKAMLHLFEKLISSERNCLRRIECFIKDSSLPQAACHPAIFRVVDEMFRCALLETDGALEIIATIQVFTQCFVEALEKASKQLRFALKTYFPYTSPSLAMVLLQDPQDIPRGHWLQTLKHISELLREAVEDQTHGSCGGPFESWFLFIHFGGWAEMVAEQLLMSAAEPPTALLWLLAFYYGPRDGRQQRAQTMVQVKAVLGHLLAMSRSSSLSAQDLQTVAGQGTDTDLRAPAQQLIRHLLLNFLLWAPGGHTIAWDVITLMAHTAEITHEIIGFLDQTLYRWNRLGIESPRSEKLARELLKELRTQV
T1 sequence (Q9HB96 whole entry, further chain): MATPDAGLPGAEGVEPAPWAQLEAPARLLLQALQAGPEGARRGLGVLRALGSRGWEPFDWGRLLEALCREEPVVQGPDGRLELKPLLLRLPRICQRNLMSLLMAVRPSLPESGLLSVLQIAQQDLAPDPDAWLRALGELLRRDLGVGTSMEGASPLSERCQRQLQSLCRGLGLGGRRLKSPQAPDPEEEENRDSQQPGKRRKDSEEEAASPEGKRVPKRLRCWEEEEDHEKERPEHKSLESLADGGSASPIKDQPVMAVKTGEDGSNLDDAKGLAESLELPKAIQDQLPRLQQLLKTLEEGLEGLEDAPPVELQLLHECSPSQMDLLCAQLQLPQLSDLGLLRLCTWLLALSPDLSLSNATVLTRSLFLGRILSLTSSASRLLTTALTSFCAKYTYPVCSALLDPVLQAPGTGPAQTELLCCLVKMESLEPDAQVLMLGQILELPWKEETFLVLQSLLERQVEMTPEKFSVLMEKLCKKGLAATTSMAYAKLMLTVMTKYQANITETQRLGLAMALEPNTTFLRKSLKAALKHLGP
T1 sequence (Q9NPI8 whole entry, further chain): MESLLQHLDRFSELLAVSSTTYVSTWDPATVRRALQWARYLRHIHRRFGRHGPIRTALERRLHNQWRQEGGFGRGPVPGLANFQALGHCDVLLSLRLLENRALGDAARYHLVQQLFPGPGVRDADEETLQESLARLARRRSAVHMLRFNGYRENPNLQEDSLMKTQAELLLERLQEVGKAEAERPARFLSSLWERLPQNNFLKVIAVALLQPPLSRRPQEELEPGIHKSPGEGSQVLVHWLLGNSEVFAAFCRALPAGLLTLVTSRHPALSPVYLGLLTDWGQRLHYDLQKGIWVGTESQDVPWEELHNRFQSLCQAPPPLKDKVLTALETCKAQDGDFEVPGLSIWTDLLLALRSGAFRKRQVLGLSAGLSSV
From the text: The inhibitor assay includes recombinant ubiquitin, ubiquitin activating enzyme, FANCT, FANC-B-L-100, FANC-C-E-F, FANCI, FANCD2 and dsDNA[41] (Fig. 2a). For the activator assay, the activity stimulating adaptor complex FANC-C-E-F is omitted to give a baseline FANCD2-ubiquitination signal which enables a greater dynamic range to detect activation of the E3 ligase sub complex FANCB-L-100 (Fig. 2b,c). […] The gel-based FANCD2 mono-ubiquitination assay that we published previously[26] was modified to give a chemi-luminescent readout using a proximity assay (Materials and methods) (Fig. 1b). The purified proteins in the mono-ubiquitination assays used for the high-throughput screen are biotinylated-ubiquitin (b-ubiquitin), His-UBE1, FANCT, Flag-FANCB, FANCL, FAAP100, MBP-FANCC, FANCE, FANCF, GST-XlFANCD2 and Flag-XlFANCI. The assay was calibrated for maximal signal to background and for an optimal dynamic range within which small molecule modulators could be detected in a 384-well plate format. […]
For high-throughput screening, FANCD2 mono-ubiquitination was measured with a proximity assay (AlphaScreen, Perkin Elmer). […] The 520–620 nm signal provides a read out of FANCD2 mono-ubiquitination. […] All protein concentrations in the assay were determined by titration of each component for optimal activity (Fig. 2). […]

[3] = system: SUM149 cells; assay: Synthetic lethal cell assay (SRB cell viability), BRCA1-deficient cells; assay type: cell-based, human; conditions: 10 µM, 72 h
From the text: (§1) Therefore, we tested our preliminary inhibitors for the ability to kill BRCA1-deficient cells preferentially over isogenic BRCA1-proficient controls. To achieve this we exploited the triple negative breast cancer cell line SUM149[48] with a homozygous loss of function mutation in BRCA1 (c.2288delT, p.N723fsX13) and the daughter cell line, SUM149.B1.S* with one allele containing a secondary restoration of function mutation (an 80-bp BRCA1 deletion, c.[2288delT;2293del80])[49]. Twenty-five compounds were tested at 10 µM for preferential cytotoxicity in the BRCA1-deficient SUM149 (Fig. 5).
(§2) SUM149 parental cell line and SUM149 B1.S* cell lines[49] were seeded in a 96-well plate with 3000 cells per well. After 24 h, media was removed, and the cells were treated with 10 µM of each compound in triplicate in antibiotic free media and left for 72 h. Cell were fixed with 1% trichloroacetic acid and stained with sulphorhodamine B (SRB). Absorbance of wells were read at 550 nm.

[4] = system: SUM149.B1.S* cells; assay: Synthetic lethal cell assay (SRB cell viability), BRCA1-proficient control cells; assay type: cell-based, human; conditions: SUM149.B1.S* (BRCA1 reversion), 10 µM, 72 h
From the text: as §1, §2

| Structure (SMILES) | FANCD2 foci ([1]; SUM149 parental cells) | effect on FANCD2 foci formation [1] | also measured |
| --- | --- | --- | --- |
| CO[C@@]12[C@H](COC(N)=O)C3=C(C(=O)C(C)=C(N)C3=O)N1C[C@@H]1N[C@@H]12 [MMC, mitomycin C] | 5.45 |  |  |
| NS(=O)(=O)OC[C@H]1C[C@@H](Nc2ccnc3cc(-c4cccc(SC(F)(F)F)c4)nn23)[C@H](O)[C@@H]1O [TAK243] | 0.28 |  | inhibition of the FANCD2 mono-ubiquitination reaction [2]: > 50%; toxicity in the foci assay ([1]; SUM149 parental cells): highly toxic |
| NC(=O)c1cccc2cn(-c3ccc([C@@H]4CCCNC4)cc3)nc12 [niraparib] |  | increased FANCD2 foci formation |  |
| O=C(c1cc(Cc2n[nH]c(=O)c3ccccc23)ccc1F)N1CCN(C(=O)C2CC2)CC1 [olaparib] |  | increased FANCD2 foci formation | survival [3]: 33.3%; survival [4]: 78.1% |
| CNCc1ccc(-c2[nH]c3cc(F)cc4c3c2CCNC4=O)cc1 [rucaparib] |  | increased FANCD2 foci formation |  |
| C[C@]1(c2nc3c(C(N)=O)cccc3[nH]2)CCCN1 [veliparib] |  | increased FANCD2 foci formation |  |
